No end group written: not given here.
Assays:
[1] = test system: hematopoietic stem cell adhesion factors (Sdf-1a, KitI, Angpt1) present in osteoblasts; assay: expression of hematopoietic stem cell adhesion factors in osteoblasts, real-time quantitative PCR; format: cell-based, mouse; conditions: 10 nM peptide for 3 days; compared to osteoblasts (control) not treated with peptides; fold change
Procedure: All mice used in the experiment were 6 to 8 weeks old mice, C57BL/6 mice, and purchased from Jackson Laboratory (Bar Harbor, Me., USA). NPY (21-28) (SEQ ID NO: 1), NPY (24-31) (SEQ ID NO: 2), NPY (29-36) (SEQ ID NO: 3), NPY D25 (21-28) (SEQ ID NO: 4), NPY D26 (21-28) (SEQ ID NO: 5), NPY D25, 26 (21-28) (SEQ ID NO: 6), NPY (21-36) (Osteopep2) (SEQ ID NO: 7) were prepared from Anygen. Full length NPY (SEQ ID NO: 8) was purchased from Bachem. 10 nM of each peptide was diluted in each medium and injected for in vitro experiments. The NPY D^25(21-28) refers to a peptide in which arginine, the fifth amino acid of the amino acid sequence of NPY (21-28), is modified to D-type, the NPY D^26(21-28) refers to a peptide in which the sixth amino acid histidine is modified to D-form, and the D^25,26(21-28) refers to a peptide in which both the fifth and sixth amino acids are modified to D-form, respectively.
Four to six weeks old C57BL/6 mice were sacrificed after anesthesia, and then tibias and femurs were dissected. Bone marrow was harvested from tibias and femurs and single cell suspensions were obtained using a 40 μm cell strainer (Becton-Dickinson LAβware, Franklin Lakes, N.J.). Approximately […] were dispensed into 75-cm 2 flasks containing mesenchymal stem cells Stimulatory Supplements with antibiotics (Stem Cell Technologies, Inc) and MesenCult™ MSCBasal medium. The cells were incubated for 1 week and further incubated for 3 weeks with StemXVivo Osteogenic/Adipogenic Base Media (R & D systems) supplemented with StemXVivo Osteogenic supplement (20×) and penicillin-streptomycin (100×) for differentiation into osteoblasts.
Real-time quantitative PCR was used to measure expression levels of hematopoietic stem cell adhesion factors (Sdf-1a, KitI, Angpt1) present in osteoblasts. Total RNA was extracted from cell eluate and bone marrow cells using the RNeasy Plus mini kit (Qiagen, Korea, Ltd), and cDNAs were synthesized from 5 μg total RNA using a kit in Clontech (Mountain View, Calif.). In addition, using a Corbett research RG-6000 real-time PCR instrument, Real-time quantitative PCR was performed at 95° C. for 10 minutes; at 95° C., for 10 seconds; at 58° C., for 15 seconds; at 72° C. for 20 seconds as one cycle, and 40 cycles were repeated.
First, bone marrow was harvested from 4 to 6 weeks old C57BL6 mice, and mesenchymal stem cells (BM-MSCs) in bone marrow were collected, and then cultured for 3 weeks in osteoblast differentiation induction medium for the differentiation into osteoblasts. After 28 days, each peptide was treated with 10 nM for 3 days, and bone cells were collected and examined for expression levels of three adhesion factors by real-time quantitative PCR. Osteopep2 and its parent NPY were used as positive controls.

[2] = test system: animal models of osteoporosis; assay: Micro CT bone density in animal models of osteoporosis; format: in vivo, mouse; conditions: OVX mice, 50 μg/kg i.p. twice a day for 4 weeks; femur microCT; compared to PBS
Procedure: To make an osteoporosis model, 10-18 12 weeks old female mice per group underwent ovarian ablation. A week later, 50 μg/kg of NPY(21-28), NPY D^25(21-28), NPY D^26(21-28), NPY D^25,26(21-28), Osteopep2, NPY and 100 μl of PBS(Gibco) were intraperitoneally administered twice a day for 4 weeks at 12 hour intervals. Alendronate (Sigma), used as a competitive drug, was intraperitoneally administered once a week for 4 weeks at a dose of 50 μg/kg. As a control group, only Sham model of osteoporosis was performed by subcutaneous dissection of female mouse. Mice were placed in experimental groups using the Block randomization method, and all mouse experiments were approved through the Kyungpook National University Institutional Animal Care and Use Committee. The femurs were separated from the mouse and refrigerated in 80% ethanol, and in order to measure change of bone density, the bone volume/total volume and trabecular thickness were measured by analyzing the area between 0.7 mm and 2.3 mm from the growth plate baseline with the Quantum FX microCT Imaging System. Femurs were separated from mice after the last administration of NPY (21-28) at 4 weeks. To determine the change of bone density, bone density (bone volume/total volume) and bone tissue thickness (trabecular thickness) were measured with the Quantum FX microCT Imaging System. Femurs were separated from mice after the last administration of NPY D^25(21-28), NPY D^26(21-28), and NPY D^25,26(21-28) at 4 weeks. To determine the change of bone density, bone density (bone volume/total volume) and bone tissue thickness (trabecular thickness) were measured with the Quantum FX microCT Imaging System.

[3] = test system: osteoclasts in bone marrow; assay: TRAP staining of osteoclasts in bone marrow of osteoporosis animal models; format: in vivo, mouse; conditions: OVX mice, 50 μg/kg i.p. twice a day for 4 weeks; compared to PBS
Procedure: To make an osteoporosis model, 10-18 12 weeks old female mice per group underwent ovarian ablation. A week later, 50 μg/kg of NPY(21-28), NPY D^25(21-28), NPY D^26(21-28), NPY D^25,26(21-28), Osteopep2, NPY and 100 μl of PBS(Gibco) were intraperitoneally administered twice a day for 4 weeks at 12 hour intervals. Alendronate (Sigma), used as a competitive drug, was intraperitoneally administered once a week for 4 weeks at a dose of 50 μg/kg. As a control group, only Sham model of osteoporosis was performed by subcutaneous dissection of female mouse. Mice were placed in experimental groups using the Block randomization method, and all mouse experiments were approved through the Kyungpook National University Institutional Animal Care and Use Committee.
The femurs were separated from the mice and fixed in 4% paraformaldehyde for 24 hours, and tissue was decalcified in 10% EDTA for 5 weeks. It was then dehydrated with a series of diluted alcohols, paraffinized, and prepared into […] paraffin sections.
For TRAP staining, sections were deparaffinized, stained with 1.33 mM Fast Red Violet LB Salt (Sigma-Aldrich) in 50 mM sodium acetate (pH 5.0) containing 225 μM Naphthol AS-MX phosphate (Sigma-Aldrich, St Louis, Mo., USA), 0.84% N, N-dimethylformamide (Sigma-Aldrich) and 50 mM sodium tartrate, and incubated for 30 minutes. After incubation, the sections were washed with distilled water and counterstained with 1% methyl green.
Histomorphometric analysis was performed using the OsteoMeasure program (Extensive interactive Bone Histomorphometry Analysis System).
After the last administration at 4 weeks of NPY (21-28), the femurs were separated from the mice and the number of osteoclasts in the bone marrow was measured by TRAP staining.
After the last administration at 4 weeks of NPY D^25(21-28), NPY D^26(21-28), and NPY D^25,26(21-28), the femurs were separated from the mice and the number of osteoclasts in the bone marrow was measured by TRAP staining.

NPY (24-31): recombinant peptide consisting of eight amino acids of NPY, SEQ ID NO: 2 (LRHYINLI; synthetic neuropeptide Y fragment (24-31))
expression levels of Sdf-1a, KitI, and Angpt1 in osteoblasts [1]: decreased only in osteoblasts treated with NPY (21-28)

NPY (29-36): recombinant peptide consisting of eight amino acids of NPY, SEQ ID NO: 3 (NLITRQRY; ends and bridges not checked)
expression levels of Sdf-1a, KitI, and Angpt1 in osteoblasts [1]: decreased only in osteoblasts treated with NPY (21-28)

NPY: full length neuropeptide Y purchased from Bachem, used as positive control [reference compound]
bone tissue thickness (trabecular thickness) [2]: increased | percentage of bone density (BV/TV) [2]: increased | number of TRAP positive osteoclasts in bone marrow (Number of osteoclast/Bone surface) [3]: reduced | osteoclast surface (Osteoclast surface/Bone surface) [3]: reduced

Reference: patent US11279744B2, “Neuropeptide Y fragment capable of releasing hematopoietic stem cells into blood and treating osteoporosis” (Kyungpook National University Industry-Academic Cooperation …, priority 2017, dated 2022)
